Patent publication US10316050B2, “PT (IV) complexes containing 4,4′-disubstituted-2,2′-bipyridyl and their use in cancer therapy” (THE BOARD OF REGENTS OF THE NEVADA SYSTEM OF HIGHER …, priority 2014, dated 2019)
Where two headings read alike, the source gives them in different places.

Key:
[1] = Solubility in DMSO and common organic solvents; format: physicochemical
Experimental: Coordination of the axial ligands to the Pt center improved the solubility of the complexes in common organic solvents. DMSO solutions of the Pt(IV) complexes with concentrations of 10 mM or higher were obtainable, whereas the Pt(II) can only be made at the highest concentration of 5 mM.

[2] = tested on: HCC38 breast cancer cells; experiment: MTS cell viability assay, HCC38; format: cell-based, human; conditions: read-out: EC50 (effective concentration that resulted in 50% cell viability)
Experimental: (§1) Human breast (HCC38, MCF-7, MDA-MB-231, SK-BR-3, T-47D, and ZR-75-1), lung (A549 and H520), and prostate (DU145 and PC-3) cancer cell lines were obtained from American Culture Type Collection (ATCC). The HCC38, MCF-7, MDA-MB-231, SK-BR-3, T-47D, ZR-75-1, and A549 cells were grown in MEM supplemented with 10% FBS, 25 mM HEPES buffer (pH 7.4), penicillin (100 U/mL), and streptomycin (100 μg/mL). The H520, DU145, and PC-3 cell lines were grown in RPMI-1640 supplemented with 10% FBS, 25 mM HEPES buffer (pH 7.4), penicillin (100 U/mL), and streptomycin (100 μg/mL). All cell lines were maintained at 37° C. in a humidified, 5% CO2 atmosphere.
(§2) Cells were cultured at a density of 2-3.5×10^3 cells per well in flat bottomed 96-well plates in 100 μL of complete growth medium and incubated for 2 days to reach ˜50% confluence. The cells were then treated with solvent or the appropriate drugs (CDDP stock was dissolved in 0.15 M NaCl, carboplatin stock was dissolved in 5% glucose, synthesized Pt(IV) complexes were dissolved in DMSO) for 1 hour, washed three times with 100 μL PBS, and incubated in 100 μL of fresh medium. After 2 days, the medium was replaced with 120 μL of medium containing CellTiter 96® Aqueous One Solution Reagent (MTS reagent) (Promega, Madison, Wis.). The cells were incubated at 37° C. for 4 hours and the cell viability was determined by measuring the absorbance at 490 nm using a Tecan Infinite M1000 microplate reader. The 48 h treatment was done in a similar manner, except the cells were not washed after treatment and the MTS reagent was immediately added. Viability of treated groups was calculated as a percent of control and graphed with GraphPad Prism.
(§3) The anti-proliferative activities of Pt(IV) complexes were determined in two lung (A549 and H520), two prostate (DU145 and PC-3), and six breast (HCC38, MCF-7, MDA-MB-231, SK-BR-3, T-47D, and ZR-75-1) cancer cell lines. The cells were treated with increasing concentrations of cisplatin (CDDP), carboplatin, or the Pt(IV) complexes for 1 or 48 hours, and the viability was measured using an MTS colorimetric cell proliferation assay. Graphs of the results are shown for DU145 (FIG. 8A), PC-3 (FIG. 8B), SK-BR-3 (FIG. 8C), ZR-75-1 (FIG. 8D), A549 (FIG. 8E), and MCF-7 (FIG. 8F).

[3] = tested on: DU145 prostate cancer cells; format: cell-based, human; conditions: read-out: EC50 (effective concentration that resulted in 50% cell viability)
Experimental: as §1, §2, §3
(§4) The anti-proliferative activities of certain Pt(II) complexes were determined in DU145, PC-3, and SK-BR-3 cells. The cells were treated with increasing concentrations of cisplatin (CDDP) or the Pt(II) complexes for 1 or 48 hours, and the viability was measured using an MTS colorimetric cell proliferation assay.

A549 lung cancer cells = experiment: MTS cell viability assay, A549; format: cell-based, human; conditions: read-out: EC50 (effective concentration that resulted in 50% cell viability)
Experimental: as §1, §2, §3

[4] = tested on: T-47D breast cancer cells; experiment: MTS cell viability assay, T-47D; format: cell-based, human
Experimental: as §1, §2, §3

[5] = tested on: PC-3 prostate cancer cells; experiment: MTS cell viability assay, PC-3; format: cell-based, human; conditions: read-out: EC50 (effective concentration that resulted in 50% cell viability)
Experimental: as §1, §2, §3, §4

[6] = tested on: ZR-75-1 breast cancer cells; experiment: MTS cell viability assay, ZR-75-1; format: cell-based, human; conditions: read-out: EC50 (effective concentration that resulted in 50% cell viability)
Experimental: as §1, §2, §3

[7] = tested on: MDA-MB-231 breast cancer cells; experiment: MTS cell viability assay, MDA-MB-231; format: cell-based, human; conditions: read-out: EC50 (effective concentration that resulted in 50% cell viability)
Experimental: as §1, §2, §3

[8] = tested on: MCF-7 breast cancer cells; experiment: MTS cell viability assay, MCF-7; format: cell-based, human; conditions: read-out: EC50 (effective concentration that resulted in 50% cell viability)
Experimental: as §1, §2, §3

[9] = tested on: SK-BR-3 breast cancer cells; experiment: MTS cell viability assay, SK-BR-3; format: cell-based, human; conditions: read-out: EC50 (effective concentration that resulted in 50% cell viability)
Experimental: as §1, §2, §3, §4

H520 lung cancer cells = experiment: MTS cell viability assay, H520; format: cell-based, human; conditions: read-out: EC50 (effective concentration that resulted in 50% cell viability)
Experimental: as §1, §2, §3

CCCCCCCCOc1ccnc(-c2cc(OCCCCCCCC)ccn2)c1.[Cl][Pt][Cl] [Pt(II)-8C]
solubility in DMSO and other common organic solvents (in words) [1]: poor solubility in DMSO

[Pt(IV)Cl2(OAc)2(4,4′-dihexyloxy-2,2′-bipyridine)] [Pt(IV)-6C]
EC50 ([2]; HCC38, 1 h treatment, Table 3): 2300 ± 200 nM | EC50 ([2]; HCC38, 48 h, Table 5): 1800 ± 500 nM | EC50 ([3]; DU145, 1 h treatment, Table 3): 1300 ± 200 nM | EC50 ([3]; DU145, 48 h, Table 5): 500 ± 300 nM | EC50 (A549 lung cancer cells; A549, 1 h treatment, Table 3): 2500 ± 200 nM | EC50 (A549 lung cancer cells; A549, 48 h, Table 5): 2200 ± 100 nM | EC50 ([4]; 1 h treatment, Table 3, read-out: EC50 (effective concentration that resulted in 50% cell viability)): 2100 ± 400 nM | EC50 ([4]; 48 h, Table 5, read-out: EC50 (effective concentration that resulted in 50% cell viability)): 240 ± 10 nM | EC50 ([5]; PC-3, 1 h treatment, Table 3): 2000 ± 300 nM | EC50 ([5]; PC-3, 48 h, Table 5): 330 ± 40 nM | EC50 ([6]; ZR-75-1, 1 h treatment, Table 3): 1100 ± 400 nM | EC50 ([6]; ZR-75-1, 48 h, Table 5): 550 ± 40 nM | EC50 ([7]; MDA-MB-231, 1 h treatment, Table 3): 1100 ± 200 nM | EC50 ([7]; MDA-MB-231, 48 h, Table 5): 310 ± 40 nM | EC50 ([8]; MCF-7, 1 h treatment, Table 3): 2400 ± 100 nM | EC50 ([8]; MCF-7, 48 h, Table 5): 1600 ± 200 nM | EC50 ([9]; SK-BR-3, 1 h treatment, Table 3): 360 ± 20 nM | EC50 ([9]; SK-BR-3, 48 h, Table 5): 210 ± 30 nM | EC50 (H520 lung cancer cells; H520, 1 h treatment, Table 3): 2100 ± 200 nM | EC50 (H520 lung cancer cells; H520, 48 h, Table 5): 1000 ± 400 nM

CCCCCCOc1ccnc(-c2cc(OCCCCCC)ccn2)c1.[Cl][Pt][Cl] [Pt(II)-6C]
EC50 ([2]; HCC38, 1 h treatment, Table 2): 16000 ± 5000 nM | EC50 ([2]; HCC38, 48 h treatment, Table 4): 14000 ± 4000 nM | EC50 ([3]; DU145, 1 h treatment, Table 2): 2100 ± 100 nM | EC50 ([3]; DU145, 48 h treatment, Table 4): 1900 ± 100 nM | EC50 (A549 lung cancer cells; A549, 1 h treatment, Table 2): 66000 ± 16000 nM | EC50 (A549 lung cancer cells; A549, 48 h treatment, Table 4): 19100 ± 800 nM | EC50 ([4]; 1 h treatment, Table 2, read-out: EC50 (effective concentration that resulted in 50% cell viability)): 3200 ± 800 nM | EC50 ([4]; 48 h treatment, Table 4, read-out: EC50 (effective concentration that resulted in 50% cell viability)): 2100 ± 200 nM | EC50 ([5]; PC-3, 1 h treatment, Table 2): 2240 ± 30 nM | EC50 ([5]; PC-3, 48 h treatment, Table 4): 2700 ± 100 nM | EC50 ([6]; ZR-75-1, 1 h treatment, Table 2): 7000 ± 2000 nM | EC50 ([6]; ZR-75-1, 48 h treatment, Table 4): 6400 ± 400 nM | EC50 ([7]; MDA-MB-231, 1 h treatment, Table 2): 6000 ± 3000 nM | EC50 ([7]; MDA-MB-231, 48 h treatment, Table 4): 4000 ± 1000 nM | EC50 ([8]; MCF-7, 1 h treatment, Table 2): 80000 ± 30000 nM | EC50 ([8]; MCF-7, 48 h treatment, Table 4): 12000 ± 4000 nM | EC50 ([9]; SK-BR-3, 1 h treatment, Table 2): 1840 ± 30 nM | EC50 ([9]; SK-BR-3, 48 h treatment, Table 4): 1800 nM | EC50 (H520 lung cancer cells; H520, 1 h treatment, Table 2): > 50000 nM | EC50 (H520 lung cancer cells; H520, 48 h treatment, Table 4): 18000 ± 1000 nM
